The results in this text go back to patent US20250304587A1, “WEE1 INHIBITOR, PREPARATION THEREFOR AND USE THEREOF” (JIANGSU TASLY DIYI PHARMACEUTICAL CO., LTD., priority 2022, published 2025).

The structures appear in SMILES notation. Converted amounts (≈) assume the structure as drawn. Like-named read-outs stand apart in the source and are kept apart here.

The subject of one series is BxPC3 cells. Kind of series: Cell Titer-Glo anti-proliferation, BxPC3 cells. In kind it is cell-based, human. Conditions: Homo sapiens, BXPC-3, 72 h, 3 days, read-out: Anti-proliferative activity BxPC3 (IC50 class). An outline of the steps: (§1)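 Each line was exposed to graded compound concentrations for 3 days at 37 °C, 5% CO2, with final DMSO at 0.2%. Viability was measured by Cell Titer-Glo luminescence, with untreated cells as the maximum and medium as the minimum signal. IC50 came from a variable-slope log(inhibitor)-response fit.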

A short description of series [1]: Saturated solubility in buffer at different pH. In kind it is physicochemical. To be noted: for solubility at 24 h: buffer solution, aqueous buffer, thermodynamic from solid. The method, then:
The compound was placed in a buffer solution and shaken at constant temperature for 24 h. […] Chromatographic conditions: C18 column, mobile phase A: 0.02 M potassium dihydrogen phosphate:acetonitrile=90:10, mobile phase B: acetonitrile; V: 1.0 ml/min, T: 35° C., λ: 210 nm.

Series [2] is described as follows: Plasma protein binding (equilibrium dialysis), human. The format is in vitro ADME. Conditions: 5 h dialysis, read-out: Plasma Protein binding (PPB) Human (converted). (In equilibrium dialysis only unbound substance equilibrates across the membrane.)
In a further series the test system is HK2 cells. Description: Cell Titer-Glo anti-proliferation, normal cells HK2. Conditions: Homo sapiens, HK-2. In kind it is cell-based. An outline of the steps: (§2)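 Cells were exposed to serial compound concentrations (0.2% DMSO final) for 3 days at 37 °C, 5% CO2, then lysed with Cell Titer-Glo and read by luminescence. Inhibition was referenced to untreated-cell and medium-only controls, and IC50 came from a four-parameter variable-slope log(inhibitor)–response fit.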
In general terms: Cellular ATP, detected with luciferase, serves as a proxy for viable cell number.

Series [3] can be described thus: Pharmacokinetics on single dose in mice (iv and po). The format is in vivo, male ICR mice. The text has this:
The present experiment aimed to study the pharmacokinetics in the plasma of male ICR mice after the administration. The present experiment aimed to obtain the pharmacokinetic profile of the subject compounds in ICR mice (both intravenous and oral) [table] • Species: SPF grade male ICR mice • Body weight/weekly age: about 30 g • Amount: 6 • Experimental animal source: Charles River • Intravenous solvents: 5% DMSO—10% Solutol-85% HPBCD (20%, WN) • “Gavage solvent/dosage form: 5% DMSO—10% Solutol-85% HPBCD (20%, WN)” • Intravenous: 1 mg/kg in a volume of 5 mL/kg • Gavage: 10 mg/kg in a volume of 10 mL/kg • Ultrasound for 5 min before administration • Intravenous: 0.2 mg/mL • Gavage: 1 mg/mL • Fast overnight before administration and feed four hours after administration. […] The blood samples were stored in a refrigerator at or below −20 C for LC-MS/MS analysis. The samples were detected for drug concentration at each time point by LC-MS/MS. Pharmacokinetic parameters terminal elimination half-life (t½), area under the curve (AUC), apparent volume of distribution (Vd), clearance (CL), mean residence time (MRT), and Cmax were calculated using the non-compailinental model of Phoenix WinNonlin 5.2. Bioavailability (F %) was directly from serum concentration results. Mean standard deviation (X±SD) was used for blood concentration and pharmacokinetic parameters, etc. Specific testing and analytical methods were specified in the form of protocol revisions.

The test system of a further series is HUVEC cells. Kind of series: Cell Titer-Glo anti-proliferation, normal cells HUVEC. In kind it is cell-based. Conditions: Homo sapiens, HUVEC. Summed up: as §2
Series [4] is described as follows: Plasma protein binding (equilibrium dialysis), mouse. Conditions: mouse, plasma.
The nature of series [5]: Plasma protein binding (equilibrium dialysis), rat. In kind it is in vitro ADME. To be noted: 5 h dialysis, read-out: Plasma Protein binding (PPB) Rat (converted).
A further series has as its system OVCAR-3 cells. Kind of series: Cell Titer-Glo anti-proliferation, OVCAR-3 cells. In kind it is cell-based. To be noted: Homo sapiens, OVCAR-3, 72 h, 3 days, read-out: Anti-proliferative activity OVCAR-3 (IC50 class). An outline of the steps: as §1
The target in a further series is CYP1A2 (Homo sapiens (Human), UniProt P05177). Kind of series: Cytochrome P450 inhibition (fluorescence), CYP1A2. The format is in vitro ADME. Conditions: read-out: IC50 CYP1A2. As to the method:
Enzymatic experiments were performed to quantify the inhibition of CYP450 enzyme activity of each isoform of CYP450 by small molecule inhibitors through fluorescence generated by the oxidation of the substrate by cytochrome P450. […] The Solution B composition used for the experiment was: 40 U/mL G6PDH (Sigma-aldrich, Cat #G6378). The substrate mix was 0.05× Solution A, 0.01× Solution B, 50 mM Potassium Phosphate, 0.01 mM BOMCC/0.01 mM EOMCC/0.001 mM DBOMF. […] The data were analyzed and processed using GraphPad Prism 6 software to obtain IC50 values.

Series [6] relates to plasma protein. Description: Plasma protein binding (equilibrium dialysis), human. The format is in vitro ADME. To be noted: 1 μM, 5 h dialysis.
A further series addresses hERG potassium channel (Homo sapiens (Human), UniProt Q12809). Description: hERG potassium channel inhibition, patch clamp in CHO hERG cells. On the technique in general: hERG is a cardiac potassium channel; its block is linked to QT prolongation.
Series [7] deals with plasma protein. Kind of series: Plasma protein binding (equilibrium dialysis), mouse. Conditions: mouse plasma, 1 μM, 5 h dialysis.
Series [8] in a line: Toxicity in rats after 14 consecutive days of administration, survival. Conditions: 14 days continuous administration, compared with controls.
The test system of series [9] is plasma protein. Kind of series: Plasma protein binding (equilibrium dialysis), rat. The format is in vitro ADME. Conditions: 1 μM, 5 h dialysis.
Setting [10] is: male, mouse, plasma, ICR mice, iv 1 mg/kg.
[11] abbreviates: male, mouse, plasma, ICR mice, po 10 mg/kg.

Chain of hERG potassium channel (Q12809 whole entry): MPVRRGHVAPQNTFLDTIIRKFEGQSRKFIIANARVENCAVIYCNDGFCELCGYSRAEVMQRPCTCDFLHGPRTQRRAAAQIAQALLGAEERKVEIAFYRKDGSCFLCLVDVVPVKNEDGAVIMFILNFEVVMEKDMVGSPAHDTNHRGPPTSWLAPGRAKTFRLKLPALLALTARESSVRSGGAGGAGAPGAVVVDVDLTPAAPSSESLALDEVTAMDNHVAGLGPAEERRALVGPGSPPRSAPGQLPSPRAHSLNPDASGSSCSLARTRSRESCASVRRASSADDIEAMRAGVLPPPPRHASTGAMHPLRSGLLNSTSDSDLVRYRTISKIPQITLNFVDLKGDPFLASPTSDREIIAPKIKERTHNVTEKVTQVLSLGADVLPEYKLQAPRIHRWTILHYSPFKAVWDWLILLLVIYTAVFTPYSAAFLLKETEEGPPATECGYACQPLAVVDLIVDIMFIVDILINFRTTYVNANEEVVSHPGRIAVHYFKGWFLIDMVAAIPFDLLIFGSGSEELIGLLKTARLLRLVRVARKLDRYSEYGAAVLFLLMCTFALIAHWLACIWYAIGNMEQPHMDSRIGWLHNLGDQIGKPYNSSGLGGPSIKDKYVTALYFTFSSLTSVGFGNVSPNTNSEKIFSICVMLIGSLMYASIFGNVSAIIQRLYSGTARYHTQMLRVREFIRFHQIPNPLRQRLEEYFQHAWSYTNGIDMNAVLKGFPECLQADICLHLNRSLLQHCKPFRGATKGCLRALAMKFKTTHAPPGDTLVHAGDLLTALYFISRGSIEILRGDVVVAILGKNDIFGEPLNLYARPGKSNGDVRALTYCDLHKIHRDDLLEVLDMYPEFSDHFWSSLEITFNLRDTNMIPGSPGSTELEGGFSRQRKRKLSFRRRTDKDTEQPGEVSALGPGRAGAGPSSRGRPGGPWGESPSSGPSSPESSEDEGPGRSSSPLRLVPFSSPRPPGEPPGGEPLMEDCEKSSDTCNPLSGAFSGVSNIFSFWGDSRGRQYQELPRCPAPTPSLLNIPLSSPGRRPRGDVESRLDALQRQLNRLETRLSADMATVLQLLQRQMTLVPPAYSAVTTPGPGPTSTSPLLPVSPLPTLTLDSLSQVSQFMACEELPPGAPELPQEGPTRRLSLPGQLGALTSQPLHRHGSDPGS
Chain of CYP1A2 (P05177 whole entry, canonical isoform): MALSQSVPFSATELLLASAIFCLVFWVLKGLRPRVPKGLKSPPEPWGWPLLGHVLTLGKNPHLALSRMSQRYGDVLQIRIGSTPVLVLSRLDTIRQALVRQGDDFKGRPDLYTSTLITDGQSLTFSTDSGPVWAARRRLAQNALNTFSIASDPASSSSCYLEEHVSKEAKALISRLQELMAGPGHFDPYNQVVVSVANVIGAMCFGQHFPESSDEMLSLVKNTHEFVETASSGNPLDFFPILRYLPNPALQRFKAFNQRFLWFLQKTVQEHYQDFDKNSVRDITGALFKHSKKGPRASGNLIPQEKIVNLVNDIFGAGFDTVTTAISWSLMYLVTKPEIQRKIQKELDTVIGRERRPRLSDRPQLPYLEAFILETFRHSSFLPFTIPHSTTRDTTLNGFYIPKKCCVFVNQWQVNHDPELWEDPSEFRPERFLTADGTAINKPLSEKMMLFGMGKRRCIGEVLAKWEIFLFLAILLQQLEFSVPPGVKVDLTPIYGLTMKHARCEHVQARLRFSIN
Method for hERG potassium channel: The cell line used for the patch clamp assay was a 10th generation CHO cell overexpressing hERG potassium channel cDNA. CHO hERG cells were cultured in Petri dishes or flasks at 37° C. in a 5% CO2 incubator. Cells were dropped onto circular slides 24-48 hours prior to electrophysiological experiments and cultured in cell culture medium and used for experiments after the cells had been adhered.
Cell culture medium (purchased from Invitrogen) Composition: • Ham's F12 medium • 10% (v/v) heat inactivated FBS • 100 μg/ml Hygromycin B (thaumatin) • 100 μg/ml Geneticin (Genomycin, G418)
Compound powders are dissolved in the extracellular solution and are subjected to a routine 5 to 10 minute sonication and shaking to ensure complete dissolution of the compound.
The final concentrations of compounds used for electrophysiological assays were 5, 20 μM and the final concentration of DMSO was 0.1%.
Cell membrane currents were recorded using a HEKA EPC-10 USB patch-clamp amplifier (HEKA Elektronik, Germany). • 1) A coverslip with a large number of uniformly growing individual CHO hERG cells on its surface was taken. Place in a continuous recording cell on an inverted microscope, perfused with extracellular fluid (approximately 1 ml per minute) and recorded continuously, waiting for the current to stabilize. • 2) Record HERG channel currents for individual cells using standard whole cell recording mode. The membrane voltage is first clamped at −80 mV and the cell is given a +20 mV stimulus for 5 s to activate the hERG potassium channel, then repolarized to −50 mV for 5 s to generate an outward tail current, which is continuously perfused until the current is stable, at which point the peak tail current is the control current value. • 3) The extracellular solution containing the drug to be tested was then perfused and recorded until the inhibitory effect of the drug on the hERG current reached a steady state, at which point the peak tail current was the post-drug current value. • 4) The cells are again perfused with the extracellular solution until the hERG current returns to or approaches the level prior to the addition of the drug, then the perfusion can be continued to test other concentrations or drugs. One or more compound or drug concentrations may be tested on each cell. • 5) Cisapride (C4740-10 mg, Sigma) is used as a positive control in the experiment to ensure that the cells used respond properly.

Take `C=CCn1c(=O)c2cnc(Nc3ccc(N4CCN(C)CC4)cc3)nc2n1-c1cccc(C(C)(C)O)n1` [AZD1775, reference compound]: the IC50 (commonly the concentration that inhibits the measured activity by half) with BxPC3 cells was 100 to 1000 nM; in the series with HK2 cells, 260 nM; with HUVEC cells it was above 10000 nM; with OVCAR-3 cells, 100 to 1000 nM; at CYP1A2 it was above 10000 nM. In addition, the solubility – broadly, the dissolved amount per volume that the medium holds – at 24 h in [1] (pH 5.0, 37° C., read-out: Saturated solubility pH 5.0) worked out at 410 µg/mL (≈ 819 µM); in [1] (pH 6.5, 37° C., read-out: Saturated solubility pH 6.5), 50 µg/mL (≈ 99.9 µM); in series [1] (pH 7.4, 37° C., read-out: Saturated solubility pH 7.4), 20 µg/mL (≈ 40 µM). Moreover, the results for the fraction unbound at 5 h, 1 µM in series [2], in [4] and in series [5] were 0.336, 0.087 and 0.374, respectively. Moreover, the Cl in series [3] (ICR mice, po 10 mg/kg) came out at 446 mL/min/kg. Besides, in series [3] (ICR mice, po 10 mg/kg), the F is 32%. In addition, the AUC(0-t) – broadly, exposure summed from dosing to a finite time, without extrapolation to infinity – amounted to 116 ng·h/mL in series [3] (setting [10]) and 396 ng·h/mL in series [3] (setting [11]). Besides, the clearance in series [3] (setting [10]) was 134 mL/min/kg. Besides, the half-life (usually the time needed for the level to fall by half in the phase considered) in series [3] (setting [10]) was 30 min; in series [3] (setting [11]), 52.2 min. In addition, the C0 in [3] (male, mouse, plasma, ICR mice, iv 1 mg/kg, read-out: C0) was found to be 250 ng/mL. In addition, the Cmax (in general, the peak of the concentration-time curve) in [3] (male, mouse, plasma, ICR mice, po 10 mg/kg, read-out: Cmax) turned out to be 398 ng/mL. Also, the Tmax (as a rule, the time from dosing to the highest level) in [3] (male, mouse, plasma, ICR mice, po 10 mg/kg, read-out: Tmax) was found to be 25.2 min.

`[2H][C@]1(O)c2nc(-n3c4nc(Nc5ccc(N6CCC7(CCN(C)CC7)CC6)cc5)ncc4c(=O)n3CC=C)ccc2CCC12CC2` [Compound 37b]: the “Saturated solubility pH 5.0” value in series [1] (pH 5) was 0.37 mg/mL. In series [1] (pH 6.5), the “Saturated solubility pH 6.5” value was determined as 0.37 mg/mL. Besides, the “Saturated solubility pH 7.4” value in series [1] (pH 7.4) was found to be 0.62 mg/mL. Besides, the “Plasma Protein binding (PPB) Human” value in the series on plasma protein [6] is 77.58%. Further, the “hERG Inhibition” value on hERG potassium channel (test concentration 5 μM) worked out at 18.00 ± 4.80%. Also, at hERG potassium channel (test concentration 20 μM), the “hERG Inhibition” value came to 34.70 ± 4.40%. In series [3] (ICR mice, iv 1 mg/kg), the AUClast worked out at 558 ng·h/mL, the C0 is given as 186 ng/mL, the Cl came out at 26.3 mL/min/kg and the T1/2 was 179 min. In series [3] (ICR mice, po 10 mg/kg), this compound had an AUClast of 1607 ng·h/mL, a Cl of 74 mL/min/kg, a Cmax of 307 ng/mL and an F of 29%. For the same compound, the Tmax in series [3] (ICR mice, po 10 mg/kg) turned out to be 160 min. The “Pharmacokinetic properties (in words)” value in series [3] (mice, compared with AZD1775) is given as “better pharmacokinetic properties than the control compound AZD1775”. In addition, the “Plasma Protein binding (PPB) Mouse” value in the series on plasma protein [7] is listed as 92.46%. The “Survival rate of rats (in words)” value in series [8] is “significantly better than that in the control compound AZD1775 group and the control compound ZnC3 group”. For the same compound, in the series on plasma protein [9], the “Plasma Protein binding (PPB) Rat” value came to 84.10%.
